According to patent US12416052B2, “Capturing, concentrating, and detecting microbes in a sample using magnetic ionic liquids and recombinase polymerase amplification” (priority 2019, dated 2025):
Where two headings read alike, the source gives them in different places.

Experiments:
E. amylovora Ea935 = experiment: MIL-based whole-cell extraction; set-up: species or system Erwinia amylovora; details: EF determined using Columbia Agar
Method: (§1) A universal schematic for MIL-based cell extraction is depicted in FIG. 7B. A 1 mL volume of diluted cell suspension was added to a flat-bottomed 4-mL screw cap glass vial. Fifteen microliters of either the Ni(II) or Dy(III) MIL was added and dispersed into microdroplets by vortex agitation for 30 s. The aqueous phase was decanted following dispersive extraction, and the MIL was subjected to a brief wash step using 1 mL of nuclease-free water (Integrated DNA Technologies, Coralville, IA, USA) to ensure adequate removal of loosely or incidentally bound cells. […]
(§2) Following back-extraction, aliquots of the cell-enriched back-extraction medium were serially diluted in 0.1% peptone water and a 10 μL aliquot of each dilution was applied to a separate lane on square plates containing an appropriate agar medium. […] Colonies were counted and colony forming units (CFU) were determined. The enrichment factor (EF) for MIL-based extraction was calculated using Equation 1, where CMIL represents the concentration of bacteria in suspension following extraction using the MIL and CS is the initial concentration of bacteria in the sample.

Density of MIL = format: physicochemical
C. sakazakii 01088P = experiment: MIL-based whole-cell extraction; set-up: species or system Cronobacter sakazakii; details: EF determined using Tryptic Soy Agar
Method: as §1, §2

E. coli O157:H7 N192-6-1 = experiment: MIL-based whole-cell extraction; set-up: species or system Escherichia coli; details: 1×10^6 CFU mL^−1 in TSB, 15 μL MIL
Method: (§3) A universal schematic for MIL-based cell extraction is depicted in FIG. 7B. A 1 mL volume of diluted cell suspension was added to a flat-bottomed 4-mL screw cap glass vial. Fifteen microliters of either the Ni(II) or Dy(III) MIL was added and dispersed into microdroplets by vortex agitation for 30 s. The aqueous phase was decanted following dispersive extraction, and the MIL was subjected to a brief wash step using 1 mL of nuclease-free water (Integrated DNA Technologies, Coralville, IA, USA) to ensure adequate removal of loosely or incidentally bound cells. After washing, release of viable cells from the MIL extraction phase was carried out using a “back-extraction” step accomplished through addition of 1 mL of an ionically-rich nutritive medium comprised of 20 g L^−1 tryptone and 10 g L^−1 NaCl, followed by a 120 s vortex step. After back-extraction, aliquots of the cell-enriched back-extraction medium were enumerated using the track dilution method using 100×100 mm square, gridded TSA, BSA, CA or VRBGA plates.
(§4) Following back-extraction, aliquots of the cell-enriched back-extraction medium were serially diluted in 0.1% peptone water and a 10 μL aliquot of each dilution was applied to a separate lane on square plates containing an appropriate agar medium. The plates were then tilted at an approximately 80° angle for 15 min to allow the droplets to travel toward the opposite end of the plate. The plates were incubated for 24 h at 37° C. (TSA, VRBGA), for 48 h at 37° C. (BSA) or for 24 h at 37° C. (CA). Colonies were counted and colony forming units (CFU) were determined. The enrichment factor (EF) for MIL-based extraction was calculated using Equation 1, where CMIL represents the concentration of bacteria in suspension following extraction using the MIL and CS is the initial concentration of bacteria in the sample.
(§5) In order to explore the broader utility of our approach, evaluation of additional cell types is needed. We began this extended evaluation of the Ni(II) MIL with seven representative DNA subgroups of Salmonella and eight strains of E. coli O157:H7. Briefly, a 1 mL aliquot of TSB was inoculated with 1×10^6 CFU mL^−1 of bacteria, and spiked with 15 μL of the Ni(II) MIL. MIL-based extraction was performed and 10 μL aliquots of the back-extraction solution were enumerated using TSA and BSA plates (Salmonella) or TSA plates (E. coli O157:H7). […] We later determined that VRBGA was a suitable common medium for this purpose and used this in our statistical analysis. Average CFU counts were compared to standards that were not exposed to the Ni(II) MIL. Enrichment factors were calculated for Salmonella on both non-selective (TSA) and selective agars (BSA) and for E. coli O157:H7 on non-selective agar (TSA). […] Note: As BSA is a Salmonella-specific agar E. coli O157:H7 was not plated to BSA in this example.

E. coli O157:H7 N549-3-1 = experiment: MIL-based whole-cell extraction; set-up: species or system Escherichia coli; details: 1×10^6 CFU mL^−1 in TSB, 15 μL MIL
Method: as §3, §4, §5

E. coli O157:H7 N192-5-1 = experiment: MIL-based whole-cell extraction; set-up: species or system Escherichia coli; details: 1×10^6 CFU mL^−1 in TSB, 15 μL MIL
Method: as §3, §4, §5

E. coli O157:H7 N336-4-1 = experiment: MIL-based whole-cell extraction; set-up: species or system Escherichia coli; details: 1×10^6 CFU mL^−1 in TSB, 15 μL MIL
Method: as §3, §4, §5

E. coli O157:H7 N366-2-2 = experiment: MIL-based whole-cell extraction; set-up: species or system Escherichia coli; details: 1×10^6 CFU mL^−1 in TSB, 15 μL MIL
Method: as §3, §4, §5

E. coli O157:H7 N317-3-1 = experiment: MIL-based whole-cell extraction; set-up: species or system Escherichia coli; details: 1×10^6 CFU mL^−1 in TSB, 15 μL MIL
Method: as §3, §4, §5

E. coli O157:H7 N405-5-8 = experiment: MIL-based whole-cell extraction; set-up: species or system Escherichia coli; details: 1×10^6 CFU mL^−1 in TSB, 15 μL MIL
Method: as §3, §4, §5

E. coli O157:H7 N886-71 = experiment: MIL-based whole-cell extraction; set-up: species or system Escherichia coli; details: 1×10^6 CFU mL^−1 in TSB, 15 μL MIL
Method: as §3, §4, §5

S. bongori = experiment: MIL-based whole-cell extraction; set-up: species or system Salmonella bongori; details: 1×10^6 CFU mL^−1 in TSB, 15 μL MIL
Method: as §1, §2
In order to explore the broader utility of our approach, evaluation of additional cell types is needed. […] We later determined that VRBGA was a suitable common medium for this purpose and used this in our statistical analysis. […]

[1] = test system: Salmonella enterica subsp. enterica ser. Typhimurium ATCC 14028; format: cell-based; set-up: key to Relative Affinity for MIL: +++++: higher losses during wash step are due to lower cellular affinity for the MIL; ++++: higher losses during wash step are due to lower cellular affinity for the MIL; +++: higher losses during wash step are due to lower cellular affinity for the MIL; ++: higher losses during wash step are due to lower cellular affinity for the MIL; +: higher losses during wash step are due to lower cellular affinity for the MIL
Method: as §3, §4
Because culture-based methods depend on sample preparation steps that preserve bacterial viability, potential deleterious cytotoxic effects imparted by MIL extractants must be considered. To begin our further study of MIL-bacterial interactions, we selected S. typhimurium ATCC 14028 as a model gram-negative pathogen and the Ni(II) MIL as extractant.

[2] = test system: S. enterica subsp. salamae; experiment: MIL-based whole-cell extraction; set-up: species or system Salmonella enterica; details: 1×10^6 CFU mL^−1 in TSB, 15 μL MIL
Method: as §3, §4, §5

[3] = test system: S. enterica subsp. houtenae; experiment: MIL-based whole-cell extraction; set-up: species or system Salmonella enterica; details: 1×10^6 CFU mL^−1 in TSB, 15 μL MIL
Method: as §3, §4, §5

[4] = test system: S. enterica subsp. indica; experiment: MIL-based whole-cell extraction; set-up: species or system Salmonella enterica; details: 1×10^6 CFU mL^−1 in TSB, 15 μL MIL
Method: as §3, §4, §5

[5] = test system: Y. enterocolitica ATCC 2371; experiment: MIL-based whole-cell extraction; set-up: species or system Yersinia enterocolitica; details: EF determined using Tryptic Soy Agar
Method: as §1, §2

[6] = test system: Y. enterocolitica ATCC 9160; experiment: MIL-based whole-cell extraction; set-up: species or system Yersinia enterocolitica; details: EF determined using Tryptic Soy Agar
Method: as §1, §2

[7] = Table 3, 1×10^5 CFU mL^−1 in TSB, 15 μL MIL
[8] = Table 4, 1×10^6 CFU mL^−1 in TSB, 15 μL MIL
[9] = average over exposure times 0-15 min (n=4)
[10] = exposure time 0 min, 1×10^5 CFU mL^−1 in TSB, 15 μL MIL

CCCCCCCCCCCCCC[P+](CCCCCC)(CCCCCC)CCCCCC.O=C([CH-]C(=O)C(F)(F)F)C(F)(F)F.O=C([CH-]C(=O)C(F)(F)F)C(F)(F)F.O=C([CH-]C(=O)C(F)(F)F)C(F)(F)F.[Ni+2] [Ni(II) MIL, [P66614^+][Ni(hfacac)3^−]]
Enrichment Factor (E. amylovora Ea935): 10
density (Density of MIL): ~1.3 g/mL
Enrichment Factor (C. sakazakii 01088P): 12
Enrichment Factor (TSA) (E. coli O157:H7 N192-6-1): 9
Enrichment Factor (TSA) (E. coli O157:H7 N549-3-1): 8
Enrichment Factor (TSA) (E. coli O157:H7 N192-5-1): 7
Enrichment Factor (TSA) (E. coli O157:H7 N336-4-1): 3
Enrichment Factor (TSA) (E. coli O157:H7 N366-2-2): 4
Enrichment Factor (TSA) (E. coli O157:H7 N317-3-1): 4
Enrichment Factor (TSA) (E. coli O157:H7 N405-5-8): 2
Enrichment Factor (TSA) (E. coli O157:H7 N886-71): 4
Enrichment Factor (BSA) (S. bongori): 4
Enrichment Factor (TSA) (S. bongori): 4
Relative Affinity for MIL [1]: ++++
enrichment factors ([1]; Example 2, 2×T, 1×NaCl back-extraction medium): approximately 12
Enrichment Factor (BSA) [1, 7]: 14
Enrichment Factor (TSA) [1, 7]: 10
Enrichment Factor (BSA) [1, 8]: 6
Enrichment Factor (TSA) [1, 8]: 8
average EF value (BSA) [1, 9]: 8.2±1.0
average EF value (TSA) [1, 9]: 7.2±0.6
Percent-Loss ([1]; cells lost to wash solution): 53 ± 3%
Enrichment Factor (BSA) [1, 10]: 7
Enrichment Factor (TSA) [1, 10]: 8
Enrichment Factor (BSA) ([1]; exposure time 5 min): 8
Enrichment Factor (TSA) ([1]; exposure time 5 min): 7
Enrichment Factor (BSA) ([1]; exposure time 10 min): 8
Enrichment Factor (TSA) ([1]; exposure time 10 min): 6
Enrichment Factor (BSA) ([1]; exposure time 15 min): 9
Enrichment Factor (TSA) ([1]; exposure time 15 min): 8
Enrichment Factor (BSA) [2]: 9
Enrichment Factor (TSA) [2]: 12
Enrichment Factor (BSA) [3]: 8
Enrichment Factor (TSA) [3]: 8
Enrichment Factor (BSA) [4]: 4
Enrichment Factor (TSA) [4]: 3
Enrichment Factor [5]: 5
Enrichment Factor [6]: 5
